{
  "source": "patent US10463644B2",
  "about": "“Uses of sesquiterpene lactone compounds and their derivatives in drugs preparation” (ACCENDATECH, priority 2013, dated 2019)",
  "key": {"[1]": {"tested_on": "IL-1β secreted by synoviocyte", "test": "Content of IL-1β in culture supernatant of synoviocyte of RA model rats given test compound", "type": "in vivo", "conditions": "rat RA model, dose 30 mg/kg.2d; normal control 0.16 ± 0.034, NaCl 0.49 ± 0.136", "summary_of_the_method": "(§1)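 Content of secreted TNF-α, PGE2 and IL-1β measured in supernatants of synoviocytes cultured from RA model rats. Animals dosed at 30 mg/kg.2d; normal control and NaCl groups included.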"}, "normal cells": {"tested_on": "normal cells", "test": "Survival rate of normal cells after test compound is added (flow cytometry, Annexin V-FITC/PI)", "type": "cell-based", "conditions": "18 h", "summary_of_the_method": "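Survival was determined in clinical specimens after an 18 h compound treatment, using Annexin V-FITC/PI apoptosis staining and flow cytometry.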"}, "[2]": {"tested_on": "TNF-α secreted by synoviocyte", "test": "Content of TNF-α in culture supernatant of synoviocyte of RA model rats given test compound", "type": "in vivo", "conditions": "rat RA model, dose 30 mg/kg.2d; normal control 0.38 ± 0.027, NaCl 0.74 ± 0.098", "summary_of_the_method": "as §1"}, "cancer stem cells": {"tested_on": "cancer stem cells", "test": "Survival rate of cancer stem cells after test compound is added (flow cytometry, Annexin V-FITC/PI, clinical specimen)", "type": "cell-based, patient", "conditions": "Homo sapiens, 18 h", "summary_of_the_method": "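Mononuclear cells from fresh or cryopreserved clinical samples, isolated by Ficoll gradient and held in serum-free IMDM (1×10^6/mL), received compound for 18 h. After labelling with marker antibodies (CD34+CD38+ for AML), Annexin V-FITC and PI staining was analysed by flow cytometry.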"}, "[3]": {"tested_on": "PGE2 secreted by synoviocyte", "test": "Content of PGE2 in culture supernatant of synoviocyte of RA model rats given test compound", "type": "in vivo", "conditions": "rat RA model, dose 30 mg/kg.2d; normal control 8.34 ± 1.29, NaCl 32.44 ± 10.32", "summary_of_the_method": "as §1"}, "[4]": {"conditions": "read-out: Survival rate (%) All cells (Stem cells and ordinary cells)"}, "[5]": {"conditions": "read-out: Survival rate (%) Stem cells"}, "[6]": {"conditions": "Head and neck squamous cell carcinomas"}},
  "note": "Like-named read-outs stand apart in the source and are kept apart here.",
  "data": [
    {"smiles": "C=C1C(=O)O[C@@H]2[C@@H]3[C@@H](CCC34CC4)C3(CC[C@@H]12)CC3", "note": "[Compound 26]", "values": [
      {"measurement": "Content of IL-1β in culture supernatant of synoviocyte (x ± s)", "setting": "[1]", "value": "0.42 ± 0.052", "unit": "ng/mL"},
      {"measurement": "viability at 10 µM", "setting": "normal cells; [4]", "value": 95, "unit": "%"},
      {"measurement": "viability at 10 µM", "setting": "normal cells; [5]", "value": 94, "unit": "%"},
      {"measurement": "viability at 20 µM", "setting": "normal cells; [4]", "value": 94, "unit": "%"},
      {"measurement": "viability at 20 µM", "setting": "normal cells; [5]", "value": 93, "unit": "%"},
      {"measurement": "Content of TNF-α in culture supernatant of synoviocyte (x ± s)", "setting": "[2]", "value": "0.59 ± 0.051", "unit": "ng/mL"},
      {"measurement": "viability at 10 µM", "setting": "cancer stem cells; AML", "value": 86, "unit": "%"},
      {"measurement": "viability at 20 µM", "setting": "cancer stem cells; AML", "value": 73, "unit": "%"},
      {"measurement": "viability at 10 µM", "setting": "cancer stem cells; Brain glioma", "value": 84, "unit": "%"},
      {"measurement": "viability at 20 µM", "setting": "cancer stem cells; Brain glioma", "value": 76, "unit": "%"},
      {"measurement": "viability at 10 µM", "setting": "cancer stem cells; Brain tumor", "value": 84, "unit": "%"},
      {"measurement": "viability at 20 µM", "setting": "cancer stem cells; Brain tumor", "value": 73, "unit": "%"},
      {"measurement": "viability at 10 µM", "setting": "cancer stem cells; Breast cancer", "value": 85, "unit": "%"},
      {"measurement": "viability at 20 µM", "setting": "cancer stem cells; Breast cancer", "value": 74, "unit": "%"},
      {"measurement": "viability at 10 µM", "setting": "cancer stem cells; CLL", "value": 84, "unit": "%"},
      {"measurement": "viability at 20 µM", "setting": "cancer stem cells; CLL", "value": 74, "unit": "%"},
      {"measurement": "viability at 10 µM", "setting": "cancer stem cells; CML", "value": 88, "unit": "%"},
      {"measurement": "viability at 20 µM", "setting": "cancer stem cells; CML", "value": 76, "unit": "%"},
      {"measurement": "viability at 10 µM", "setting": "cancer stem cells; Children hepatoblastoma", "value": 85, "unit": "%"},
      {"measurement": "viability at 20 µM", "setting": "cancer stem cells; Children hepatoblastoma", "value": 79, "unit": "%"},
      {"measurement": "viability at 10 µM", "setting": "cancer stem cells; Colon adenocarcinoma", "value": 86, "unit": "%"},
      {"measurement": "viability at 20 µM", "setting": "cancer stem cells; Colon adenocarcinoma", "value": 81, "unit": "%"},
      {"measurement": "viability at 10 µM", "setting": "cancer stem cells; Colorectal cancer", "value": 79, "unit": "%"},
      {"measurement": "viability at 20 µM", "setting": "cancer stem cells; Colorectal cancer", "value": 72, "unit": "%"},
      {"measurement": "viability at 10 µM", "setting": "cancer stem cells; Gastric cancer", "value": 83, "unit": "%"},
      {"measurement": "viability at 20 µM", "setting": "cancer stem cells; Gastric cancer", "value": 77, "unit": "%"},
      {"measurement": "viability at 10 µM", "setting": "cancer stem cells; Gastrointestinal tumor", "value": 87, "unit": "%"},
      {"measurement": "viability at 20 µM", "setting": "cancer stem cells; Gastrointestinal tumor", "value": 82, "unit": "%"},
      {"measurement": "viability at 10 µM", "setting": "cancer stem cells; Glioma", "value": 87, "unit": "%"},
      {"measurement": "viability at 20 µM", "setting": "cancer stem cells; Glioma", "value": 76, "unit": "%"},
      {"measurement": "viability at 10 µM", "setting": "cancer stem cells; [6]", "value": 84, "unit": "%"},
      {"measurement": "viability at 20 µM", "setting": "cancer stem cells; [6]", "value": 78, "unit": "%"},
      {"measurement": "viability at 10 µM", "setting": "cancer stem cells; Laryngeal cancer", "value": 80, "unit": "%"},
      {"measurement": "viability at 20 µM", "setting": "cancer stem cells; Laryngeal cancer", "value": 75, "unit": "%"},
      {"measurement": "viability at 10 µM", "setting": "cancer stem cells; Liver cancer", "value": 82, "unit": "%"},
      {"measurement": "viability at 20 µM", "setting": "cancer stem cells; Liver cancer", "value": 79, "unit": "%"},
      {"measurement": "viability at 10 µM", "setting": "cancer stem cells; Lung adenocarcinoma", "value": 85, "unit": "%"},
      {"measurement": "viability at 20 µM", "setting": "cancer stem cells; Lung adenocarcinoma", "value": 82, "unit": "%"},
      {"measurement": "viability at 10 µM", "setting": "cancer stem cells; Lung cancer", "value": 82, "unit": "%"},
      {"measurement": "viability at 20 µM", "setting": "cancer stem cells; Lung cancer", "value": 78, "unit": "%"},
      {"measurement": "viability at 10 µM", "setting": "cancer stem cells; Malignant melanoma", "value": 82, "unit": "%"},
      {"measurement": "viability at 20 µM", "setting": "cancer stem cells; Malignant melanoma", "value": 76, "unit": "%"},
      {"measurement": "viability at 10 µM", "setting": "cancer stem cells; Nasopharynx cancer", "value": 85, "unit": "%"},
      {"measurement": "viability at 20 µM", "setting": "cancer stem cells; Nasopharynx cancer", "value": 74, "unit": "%"},
      {"measurement": "viability at 10 µM", "setting": "cancer stem cells; Ovarian cancer", "value": 86, "unit": "%"},
      {"measurement": "viability at 20 µM", "setting": "cancer stem cells; Ovarian cancer", "value": 75, "unit": "%"},
      {"measurement": "viability at 10 µM", "setting": "cancer stem cells; Pancreatic cancer", "value": 86, "unit": "%"},
      {"measurement": "viability at 20 µM", "setting": "cancer stem cells; Pancreatic cancer", "value": 77, "unit": "%"},
      {"measurement": "viability at 10 µM", "setting": "cancer stem cells; Prostate cancer", "value": 86, "unit": "%"},
      {"measurement": "viability at 20 µM", "setting": "cancer stem cells; Prostate cancer", "value": 77, "unit": "%"},
      {"measurement": "viability at 10 µM", "setting": "cancer stem cells; Retinoblastoma", "value": 82, "unit": "%"},
      {"measurement": "viability at 20 µM", "setting": "cancer stem cells; Retinoblastoma", "value": 74, "unit": "%"},
      {"measurement": "viability at 10 µM", "setting": "cancer stem cells; Skin cancer", "value": 86, "unit": "%"},
      {"measurement": "viability at 20 µM", "setting": "cancer stem cells; Skin cancer", "value": 75, "unit": "%"},
      {"measurement": "Content of PGE2 in culture supernatant of synoviocyte (x ± s)", "setting": "[3]", "value": "25.61 ± 5.41", "unit": "ng/mL"}
    ]}
  ]
}
